As usually defined, the pIC50 is the negative decadic logarithm of the IC50, by convention in mol/L.

Consider five molecules from paper PMC4147587, “Synthesis and Analgesic Effects of μ-TRTX-Hhn1b on Models of Inflammatory and Neuropathic Pain” (Toxins, 2014).

Data set [1] deals with inherited erythromelalgia (IEM). To be noted: patients; cited from earlier work. The source says: (§1) Voltage-gated sodium channels (VGSCs) are essential for the initiation and propagation of action potentials in excitable tissues, such as nerves and muscles. Considerable in vivo and in vitro studies indicate that VGSCs play a key role in neuropathic and inflammatory pain, which begins with the aberrant firing of action potential bursts in damaged neuronal tissue. Of the nine subtypes of VGSCs identified to date and designated as Nav1.1–1.9, Nav1.3, 1.7, 1.8 and 1.9 play specialized roles in nociceptive pathways and are considered ideal targets for the development of analgesi ...

Data set [2] deals with rat models of neuropathic pain. The settings on record: 37.5 mg/kg i.p., cited from earlier work. The source says: A total of 30 rats with mechanical allodynia were divided into five groups randomly.
For data set [3], the system named is motor coordination of rats (latency to fall off the rotarod). The data set is classed as in vivo, rat (Sprague-Dawley). The settings on record: rat, in vivo. On the procedure:
Motor activity was assessed using a rotarod apparatus for rats (Coulbourn Instruments, Lehigh Valley, PA, USA). The rotarod might be set at any speed from 0 to 50 rpm. For motor coordination assessment, rats were trained for 2 days by walking them each day on an accelerating rotarod from 4 to 40 rpm for 10 min. […] Motor performance was considered as the latency to fall off the rotarod apparatus determined from the mean time in three trials for each rat at each time.

Data set [4] has as its system paroxysmal extreme pain disorder (PEPD). To be noted: patients; cited from earlier work.
From the text: as §1

Data set [5] concerns formalin-induced pain behaviors in rats. Kind of data set: formalin-induced inflammatory rat model. The format is in vivo, rat (Sprague-Dawley). To be noted: rat, in vivo, ip. On the procedure:
Acute and chronic nociceptive responses were measured using the rat paw formalin test as descried by Dubission and modified by Malmberg. Adult Sprague-Dawley rats (male, weighing 180–220 g) were used for this behavioral test. During the test, each rat was placed into open polyvinyl cages (30 cm × 40 cm × 30 cm) and at least 30 min before administration of the toxin. All agents were administered 30 min prior to s.c. intraplantar formalin injection. A volume of 50 μL formalin (5%) solution was used as previously described and injected into the plantar surface of one hind paw. Lifting, favoring, licking, shaking and flinching of the injected paw were recorded as nociceptive responses. The total time of the nociceptive response was measured every 5 min and […] (mean ± SEM). Recording of nociceptive behavior commenced immediately after formalin injection and was continued for 40 min.

Another data set deals with T1, human Nav1.7 (Homo sapiens, UniProt Q15858).
T1 construct: expressed in transfected cells; host or cells: HEK293 cells, transient transfection with Lipofectamine 2000
T1 sequence (Q15858 other isoform, or with tags, fused parts or gaps): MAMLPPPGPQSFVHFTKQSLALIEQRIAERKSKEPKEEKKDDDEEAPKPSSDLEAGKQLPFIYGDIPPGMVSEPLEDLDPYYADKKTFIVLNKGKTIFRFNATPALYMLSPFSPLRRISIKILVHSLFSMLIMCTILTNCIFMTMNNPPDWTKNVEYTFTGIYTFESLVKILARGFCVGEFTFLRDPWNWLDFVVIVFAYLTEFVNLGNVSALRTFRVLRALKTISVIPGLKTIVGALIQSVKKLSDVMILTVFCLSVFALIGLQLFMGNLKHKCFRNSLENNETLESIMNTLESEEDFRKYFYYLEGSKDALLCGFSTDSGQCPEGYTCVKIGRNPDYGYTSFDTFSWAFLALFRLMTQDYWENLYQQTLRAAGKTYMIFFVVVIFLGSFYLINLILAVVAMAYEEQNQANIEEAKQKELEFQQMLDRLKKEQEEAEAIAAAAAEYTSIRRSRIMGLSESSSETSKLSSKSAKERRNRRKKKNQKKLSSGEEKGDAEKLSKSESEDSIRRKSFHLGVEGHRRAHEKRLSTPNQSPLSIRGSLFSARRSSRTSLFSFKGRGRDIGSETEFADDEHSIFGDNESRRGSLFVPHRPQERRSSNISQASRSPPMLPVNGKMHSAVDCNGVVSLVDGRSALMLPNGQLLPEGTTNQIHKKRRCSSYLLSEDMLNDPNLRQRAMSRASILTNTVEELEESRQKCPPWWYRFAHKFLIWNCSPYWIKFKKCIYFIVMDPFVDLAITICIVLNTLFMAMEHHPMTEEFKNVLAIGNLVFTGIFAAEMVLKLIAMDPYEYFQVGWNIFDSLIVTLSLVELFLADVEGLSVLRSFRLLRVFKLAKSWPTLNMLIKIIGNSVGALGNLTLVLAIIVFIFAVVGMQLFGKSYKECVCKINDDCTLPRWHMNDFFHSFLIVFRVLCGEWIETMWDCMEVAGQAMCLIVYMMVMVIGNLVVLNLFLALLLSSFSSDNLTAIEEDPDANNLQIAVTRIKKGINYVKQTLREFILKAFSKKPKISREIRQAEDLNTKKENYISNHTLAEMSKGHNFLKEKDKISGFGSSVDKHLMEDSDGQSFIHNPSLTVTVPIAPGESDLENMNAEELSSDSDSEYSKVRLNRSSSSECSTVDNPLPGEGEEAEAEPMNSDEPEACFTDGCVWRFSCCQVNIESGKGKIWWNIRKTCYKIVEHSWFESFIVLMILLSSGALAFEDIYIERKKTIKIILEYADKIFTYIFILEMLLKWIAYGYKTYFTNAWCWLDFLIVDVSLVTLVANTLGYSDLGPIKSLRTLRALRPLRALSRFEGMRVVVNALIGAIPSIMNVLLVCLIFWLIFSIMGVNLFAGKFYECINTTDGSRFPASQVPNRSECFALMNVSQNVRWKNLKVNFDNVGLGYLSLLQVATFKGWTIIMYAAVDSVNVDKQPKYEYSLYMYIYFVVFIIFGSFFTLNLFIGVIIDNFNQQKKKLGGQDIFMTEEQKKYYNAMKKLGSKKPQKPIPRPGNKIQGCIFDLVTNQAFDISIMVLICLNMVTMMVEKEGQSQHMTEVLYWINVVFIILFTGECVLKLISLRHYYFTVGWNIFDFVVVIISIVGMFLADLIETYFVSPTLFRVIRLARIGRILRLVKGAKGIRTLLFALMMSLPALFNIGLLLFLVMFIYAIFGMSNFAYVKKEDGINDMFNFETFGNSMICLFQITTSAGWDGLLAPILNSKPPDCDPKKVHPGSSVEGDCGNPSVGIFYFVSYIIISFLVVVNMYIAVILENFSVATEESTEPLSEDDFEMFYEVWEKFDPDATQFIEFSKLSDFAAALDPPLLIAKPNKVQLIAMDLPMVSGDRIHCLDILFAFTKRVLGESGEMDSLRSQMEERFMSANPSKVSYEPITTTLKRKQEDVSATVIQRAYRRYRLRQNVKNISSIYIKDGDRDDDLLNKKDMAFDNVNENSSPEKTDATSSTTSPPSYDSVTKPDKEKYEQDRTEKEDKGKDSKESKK
T1 sequence (Q07699 19-218, further chain): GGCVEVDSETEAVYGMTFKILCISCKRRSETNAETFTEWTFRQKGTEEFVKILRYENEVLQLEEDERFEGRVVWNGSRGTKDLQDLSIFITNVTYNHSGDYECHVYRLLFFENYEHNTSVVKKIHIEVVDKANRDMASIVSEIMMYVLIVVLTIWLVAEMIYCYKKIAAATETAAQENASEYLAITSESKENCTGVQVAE
Kind of data set: whole-cell patch clamp, human Nav1.7 transiently expressed in HEK 293 cells. The data set is classed as cell-based. To be noted: comparison group printed as "native toxin group". An excerpt:
Figure 2 Inhibitory effect of synthetic μ-TRTX-Hhn1b on Nav1.7 expressed on HEK 293 cells. […] (B) The inhibition of μ-TRTX-Hhn1b on Nav1.7 was dose-dependent. […] Data are plotted as a fraction of the maximum conductance. The voltage-dependence of steady-state inactivation was estimated using a standard double-pulse protocol, in which a 20-ms depolarizing test potential of 0 mV followed a 500-ms prepulse at potentials that ranged from −130 to −10 mV with a 10-mV increment. Cells were held at −100 mV.
A human Nav1.7 channel plasmid (accession No. NM_002977) and a plasmid for green ﬂuorescent protein were transiently transfected into human embryonic kidney 293 (HEK293) cells using Lipofectamine 2000 (Invitrogen, Carlsbad, CA, USA) according to the manufacturer’s instructions. HEK293 cells were grown under standard tissue culture conditions (5% CO2; 37 °C) in DMEM supplemented with 10% FBS. The β1 subunit was cotransfected with the Nav1.7 channel to increase the current density. Cells with green ﬂuorescence were selected for whole-cell patch-clamp recording at 36–72 h after transfection. Patch-clamp experiments were performed at room temperature. Suction pipettes (2.0–3.0 MΩ) were made from borosilicate glass capillary tubes using a two-step vertical micropipette puller. The pipette solution contained (in mM): CsCl 145, MgCl2∙6H2O 4, HEPES 10, EGTA 10, glucose 10, ATP 2 (pH 7.2). The external solution contained (in mM): NaCl 145, KCl 2.5, CaCl2 1.5, MgCl2.6H2O 1.2, HEPES 10, glucose 10 (pH 7.4). Experimental data were collected and analyzed using the program Pulse/Pulsefit 8.0 (HEKA Electronics, Pfalz, Germany). Macroscopic sodium currents were filtered at 5 kHz and digitized at 20 kHz with an EPC-9 patch-clamp amplifier (HEKA Electronics, Pfalz, Germany). Series resistance was kept near 5 MΩ and compensated to 65%–70%; linear capacitative and leakage currents were digitally subtracted using the P/4 protocol.
Background: The patch-clamp technique gives a direct electrical read-out from membranes.

The next data set concerns Nav1.7. The settings on record: native toxin; ref 27 (unpublished work, 2014); cited from earlier work. The source says:
μ-TRTX-Hhn1b (HNTX-IV) is a 35-residue peptide from tarantula Ornithoctonus hainana (Haplopelma hainanum) venom. The amino acid sequence is […]. The peptide amidated at its C-terminal has a high proportion of basic residues and is crosslinked by three disulfide bonds.

Data set [6] concerns Nav1.2, Nav1.3, Nav1.4, Nav1.5, Nav1.7. The settings on record: native toxin; ref 27 (unpublished work, 2014); cited from earlier work.

pIC50: −log10 of the molar value. Read-outs that look alike come from different tables or passages of the source. No end group written: not given here.

As to `CCN(CC)CC(=O)Nc1c(C)cccc1C` [lidocaine], in data set [1], the “treatment of IEM” value is “very ineffective”.

For the molecule `Cc1cccc(C)c1OCC(C)N` (centres unmarked) [mexiletine], in data set [1], the “treatment of IEM” value is “very ineffective”. Besides, the “withdrawal threshold to von Frey hair” value in data set [2] (15 min after injection) was “significantly increased the withdrawal threshold”; in data set [2] (45 min after injection) it was “returned to a level non-significantly different from the baseline and vehicle”. For the same molecule, the “latency to fall off the rotarod” value in data set [3] is “significant latency reduction”.

For `NC(=O)N1c2ccccc2C=Cc2ccccc21` [carbamazepine], the “control of PEPD” value in data set [4] was “well controlled”.

The molecule `CN1CC[C@]23c4c5ccc(O)c4O[C@H]2[C@@H](O)C=C[C@H]3[C@H]1C5` [morphine, reference compound] yielded a pain score in data set [5] of 225.0 ± 55.8 s.

Consider “ECLGFGKGCNPSNDQCCKSSNLVCSRKHRWCKYEI (disulfide (positions not given here)) [native μ-TRTX-Hhn1b, reference compound]”, for which, at human Nav1.7, the “half-activation voltage of Nav1.7” value was −20.5 ± 0.2 mV and the “half-inactivation voltage of Nav1.7” value is on record as −42.6 ± 0.2 mV. The pIC50 in the data set with Nav1.7 is about 7.68. The subtype preference result in data set [6] is “preferentially inhibited Nav1.2, Nav1.3 and Nav1.7 compared with Nav1.4 and Nav1.5; Nav1.7 was the most sensitive channel”.
